Reference: patent US8563558B2, “Substituted pyridine urea compounds” (Confluence Life Sciences, Inc., priority 2010, dated 2013)
Where “and” joins values, the source holds several entries; their conditions need not be identical. Equal entries are not always repeated.

Columns and labels:
[1] = target: p38α/MK2 (Homo sapiens, UniProt Q16539); test: p38α/MK2 cascade assay (phosphorylation of Hsp27 peptide, Caliper LabChip 3000); assay type: biochemical; details: Hsp27 peptide 1 μM, MgATP 10 μM, 30 minutes, room temperature, two values given, read-out: p38/MK2 IC50
Method: (§1) P38 inhibitory potency and P38/MK2 substrate selectivity: The novel, MK2 substrate-selective inhibitory mechanism of compounds is evaluated in enzyme assays comparing inhibitor potency in blocking p38/MK2 versus p38/PRAK induced phosphorylation of an HSP-27 derived peptide substrate. The ability of compounds to inhibit activated phospho-p38α is evaluated using a p38α/MK2 and a p38α/PRAK cascade assay format. The kinase activity of p38α is determined by its ability to phosphorylate GST-MK2 or GST-PRAK. Activation of MK2 or PRAK by p38α is quantitated by measuring the phosphorylation of a fluorescently-labeled, MK2 specific peptide substrate, Hsp27 peptide (FITC-KKKALSRQLSVAA). The phosphorylation of the Hsp27 peptide is quantified using the Caliper LabChip 3000. Kinase reactions are carried out in a 384-well plate (Matrical, MP101-1-PP) in 20 mM HEPES pH 7.5, 10 mM MgCl2, 0.0005% Tween-20, 0.01% BSA, 1 mM DTT, and 2% DMSO. The inhibitor concentration is varied between 0.02-30,000 nM, while the Hsp27 peptide substrate and MgATP are held constant at 1 μM and 10 μM, respectively. Activated p38α is added to a final concentration of […] for reactions with nonphosphorylated 1 nM His6-MK2 in the cascade reaction. For the p38α/PRAK cascade, unactivated GST-PRAK is held constant at 1 nM while p38α is added in to a final concentration of […]. Kinase reactions are incubated at room temperature and quenched after 30 minutes by the addition of stop buffer (180 mM HEPES, 30 mM EDTA, and 0.2% Coating Reagent-3). Under these conditions, approximately 20% of the substrate Hsp27 peptide is phosphorylated. Reactions are initiated by the addition of activated p38α except for preincubation experiments, where reactions are initiated by the addition of Hsp27 peptide and MgATP. Preincubation of p38α with inhibitor or p38α with unactivated His6-MK2 or unactivated GST-PRAK and inhibitor are performed at 2× final assay concentrations at room temperature 240 minutes prior to adding ATP and Hsp27 peptide to initiate catalysis. The p38α compound inhibitory potency is quantitated from dose-response IC50 values or Ki values from p38α/MK2 cascade assays while the substrate selectivity is calculated as a ratio of p38α/PRAK:p38α/MK2 IC50 values. Species compounds of Formula I, described hereinabove, evaluated in this assay, are expected to provide a therapeutic benefit in the treatment of p38 kinase mediated diseases, such as autoimmune diseases and lymphoma.

[2] = target: p38α/PRAK (Homo sapiens, UniProt Q16539); test: p38α/PRAK cascade assay (phosphorylation of Hsp27 peptide, Caliper LabChip 3000); assay type: biochemical; details: Hsp27 peptide 1 μM, MgATP 10 μM, 30 minutes, room temperature, two values given, read-out: p38/PRAK IC50
Method: as §1

Chain of p38α/PRAK (Q16539 whole entry): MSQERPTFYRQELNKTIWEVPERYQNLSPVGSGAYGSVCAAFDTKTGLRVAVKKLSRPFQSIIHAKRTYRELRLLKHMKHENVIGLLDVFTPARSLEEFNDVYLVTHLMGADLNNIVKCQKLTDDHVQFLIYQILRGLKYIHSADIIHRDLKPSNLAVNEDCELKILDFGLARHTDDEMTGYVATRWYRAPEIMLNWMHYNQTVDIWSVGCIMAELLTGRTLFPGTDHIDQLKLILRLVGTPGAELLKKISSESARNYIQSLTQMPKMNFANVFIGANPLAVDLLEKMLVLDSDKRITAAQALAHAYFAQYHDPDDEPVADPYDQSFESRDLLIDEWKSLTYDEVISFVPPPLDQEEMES
Chain of p38α/MK2 (Q16539 whole entry): as above
Chain of p38α/MK2 (P49137 whole entry partner): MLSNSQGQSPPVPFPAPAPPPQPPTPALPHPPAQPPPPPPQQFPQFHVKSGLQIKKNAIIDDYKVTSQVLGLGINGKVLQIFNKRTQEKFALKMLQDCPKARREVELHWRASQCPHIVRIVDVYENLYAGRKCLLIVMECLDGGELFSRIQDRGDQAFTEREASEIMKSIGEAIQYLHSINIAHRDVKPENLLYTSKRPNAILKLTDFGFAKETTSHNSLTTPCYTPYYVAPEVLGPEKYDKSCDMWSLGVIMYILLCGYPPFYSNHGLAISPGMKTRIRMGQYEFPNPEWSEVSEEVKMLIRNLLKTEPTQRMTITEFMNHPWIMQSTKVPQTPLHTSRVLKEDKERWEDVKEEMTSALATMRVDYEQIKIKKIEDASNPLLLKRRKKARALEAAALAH

## Cc1ccc(-c2ccnc(C(C)(C)O)n2)cc1N(C(N)=O)c1cccc(-c2ccc(F)cc2F)n1 [Example 5, 1-(6-(2,4-difluorophenyl)pyridin-2-yl)-1-(5-(2-(2-hydroxypropan-2-yl)pyrimidin-4-yl)-2-methylphenyl)urea]
[1]
  IC50: 340 nM and 360 nM
[2]
  IC50: 1900 nM and 2600 nM

## Cc1ccc(-c2ccnc(C(C)(C)C)n2)cc1N(C(N)=O)c1cccc(-c2ccc(F)cc2F)n1 [Example 31, 1-(5-(2-(tert-butyl)pyrimidin-4-yl)-2-methylphenyl)-1-(6-(2,4-difluorophenyl)pyridin-2-yl)urea]
[1]
  IC50: 1270 nM and 1530 nM
[2]
  IC50: > 50000 nM

## Cc1ccc(-c2ccnc(C(C)(C)C)n2)cc1N(C(N)=O)c1ccc(C(N)=O)c(-c2ccc(F)cc2F)n1 [Example 17, 6-(1-(5-(2-(tert-butyl)pyrimidin-4-yl)-2-methylphenyl)ureido)-2-(2,4-difluorophenyl)nicotinamide]
[1]
  IC50: 550 nM and 500 nM
[2]
  IC50: > 10000 nM

## Cc1nc(-c2cccc(N(C(N)=O)c3cc(-c4ccnc(C(C)(C)C)n4)ccc3C)n2)cs1 [Example 33, 1-(5-(2-(tert-butyl)pyrimidin-4-yl)-2-methylphenyl)-1-(6-(2-methylthiazol-4-yl)pyridin-2-yl)urea]
[1]
  IC50: 9500 nM and 12000 nM
[2]
  IC50: > 50000 nM

## COC(=O)c1ccc(N(C(N)=O)c2cc(-c3ccnc(C(C)(C)C)n3)ccc2C)nc1-c1ccc(F)cc1F [Example 32, methyl 6-(1-(5-(2-(tert-butyl)pyrimidin-4-yl)-2-methylphenyl)ureido)-2-(2,4-difluorophenyl)nicotinate]
[1]
  IC50: 838 nM and 955 nM
[2]
  IC50: > 10000 nM
